Results reported in US11541068B2, “HMO compositions and methods for reducing autism spectrum disorder symptoms” (Glycom A/S, priority 2017, dated 2023).

Columns and labels:
[1] = tested on: faecal microbiota; assay: M-SHIME (M-TripleSHIME) in vitro gastrointestinal model: microbiota and bacterial metabolites; format: cell-based, human (healthy adult); details: proximal (PC) and distal (DC) colon reactor; means of three weekly samples
Source text: The impact of the HMOs on microbiota and bacterial metabolites was investigated in the M-SHIME® (M-TripleSHIME®) in vitro gastrointestinal model (Prodigest). The typical reactor setup of the M-TripleSHIME® consisted of a succession of four reactors simulating the different parts of the human gastrointestinal tract. The first two reactors were of the fill-and-draw principle to simulate different steps in food uptake and digestion, with peristaltic pumps adding a defined amount of SHIME feed (140 mL 3×/day) and pancreatic and bile liquid (60 ml 3×/day), respectively, to the stomach and small intestine compartment and emptying the respective reactors after specified intervals. The last two compartments were continuously stirred reactors with constant volume and pH control. […]
The M-TripleSHIME® was run in four stages: • 1. […] The baseline microbial community composition and activity in the different reactors was determined by analysis of samples and was used as a reference. • 3. […]
Sample of the liquids in each reactor were collected regularly (three times in a week, on day 1, day 3 and day 5) and were analysed for microbial metabolites and the composition of the resident microbial community. In particular, the bifidobacteria composition was analysed using ITS profiling.

[2] = tested on: clostridia; details: children with regressive autism; 6-week oral course; cited from earlier work

Row | Compound | effect on branched SCFA and ammonia production, compared with 2′-FL (FIG. 1) [1] | children with significant improvement in neurobehavioral symptoms [2] | gastrointestinal symptoms [2]
1 | CC(=O)N[C@H]1[C@H](O[C@H]2[C@@H](O)[C@@H](CO)O[C@@H](O[C@H]3[C@H](O)[C@@H](O)C(O)O[C@@H]3CO)[C@@H]2O)O[C@H](CO)[C@@H](O[C@@H]2O[C@H](CO)[C@H](O)[C@H](O)[C@H]2O)[C@@H]1O (mixture of isomers) [LNnT, lacto-N-neotetraose] | similar | – | –
2 | CN[C@H](CC(C)C)C(=O)N[C@H]1C(=O)N[C@@H](CC(N)=O)C(=O)N[C@H]2C(=O)N[C@H]3C(=O)N[C@H](C(=O)N[C@H](C(=O)O)c4cc(O)cc(O)c4-c4cc3ccc4O)[C@H](O)c3ccc(c(Cl)c3)Oc3cc2cc(c3O[C@@H]2O[C@H](CO)[C@@H](O)[C@H](O)[C@H]2O[C@H]2C[C@](C)(N)[C@H](O)[C@H](C)O2)Oc2ccc(cc2Cl)[C@H]1O [vancomycin] | – | eight of the ten children | improvement
